Test results as given in patent US20070225301A1, “TREATMENT OF ACNE AND OTHER DISEASES” (Astion Inflammation ApS, priority 2006, published 2007).
Structures can show the parent of a compound that is named as a salt.

What was measured:
acne vulgaris = assay: Case with treatment of acne vulgaris; assay type: in vivo, human; conditions: person; for Reddened inflamed area surrounding the lesion: topical treatment of acne vulgaris
Source text: A person was suffering from acne vulgaris characterised by comedones and some inflammatory lesions. They had previously regularly used a 5% benzoyl peroxide cream to treat the condition. During a flare up of the condition they applied a 5.0% aqueous solution of Pemirolast (potassium salt) once daily for four weeks to the areas affected. […] The treatment was followed and assessed by a physician.

[1] = tested on: arachidonic acid-induced ear inflammation; assay: Arachidonic acid-induced ear-inflammation test in mice; assay type: in vivo, female BALB/cA mice; conditions: intraperitoneal, 30 minutes before arachidonic acid; ear oedema one hour after
Protocol: The anti-inflammatory potential of Pemirolast can be tested in “arachidonic acid-induced ear-inflammation test in mice”, a commonly employed method for screening and evaluation of antiinflammatory drugs. Dexamethasone was employed as reference compound.
The study can be performed in female BALB/cA mice from M & B A/S, DK-8680 Ry. The test substances (various concentration of Pemirolast dissolved in aqueous solutions) and the reference compound are administered intraperitoneally in volumes of 20 ml per kg body weight 30 minutes before application of arachidonic acid to the ear. All groups are then treated with 20 μl arachidonic acid, 100 mg/ml in acetone, on the right ear.
One hour after the application of arachidonic acid the mice are sacrificed, the ears cut from the tip with a punch biopsy knife (8 mm diameter) and weighed. Mean weights and standard deviations are calculated. Relative ear oedema is assessed as the weight difference between right and left ear of each mouse expressed as percent of the left ear. Percent inhibition of the relative ear oedema compared with the vehicle treated groups is calculated for the test substance and reference compound treated groups. […]

PPAR-γ = biological target: T1, PPAR-γ (Homo sapiens, UniProt P37231); assay: Gal-4-PPAR luciferase reporter assay in HEK 293-T (Indigo Biosciences); assay type: cell-based; conditions: % inhibition 50, 14 hours treatment, read-out: Concentration of Pemirolast giving 50 % inhibition of PPAR-γ
T1 sequence (P37231 238-505 limits assumed): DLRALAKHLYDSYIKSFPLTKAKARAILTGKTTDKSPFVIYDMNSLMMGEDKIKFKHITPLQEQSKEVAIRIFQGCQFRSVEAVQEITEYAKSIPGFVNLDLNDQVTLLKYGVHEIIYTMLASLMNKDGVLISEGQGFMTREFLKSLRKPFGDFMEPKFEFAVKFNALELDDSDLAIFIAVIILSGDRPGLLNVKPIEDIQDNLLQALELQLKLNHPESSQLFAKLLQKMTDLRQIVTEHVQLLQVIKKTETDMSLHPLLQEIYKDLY
Protocol: (§1) The inhibitory effect of Pemirolast on PPAR was determined by Indigo Biosciences. The following assay procedure was used: Compounds were diluted in DMSO to a final concentration of […] and serial dilutions prepared. The cell line HEK 293-T was transiently transfected with Gal-4-human PPARα, γ, Gal-4-luciferase and pRL (renilla, to correct for efficiency). The cells were treated with Pemirolast or with positive controls (ciprofibrate, or rosiglitazone) for 14 hours. The cells were lysed and luciferase and renilla activity were determined.

PPAR-α = biological target: T2, PPAR-α (Homo sapiens, UniProt Q07869); assay: as above; assay type: cell-based; conditions: % inhibition 50, 14 hours treatment, read-out: Concentration of Pemirolast giving 50 % inhibition of PPAR-α
T2 sequence (Q07869 200-468 limits assumed): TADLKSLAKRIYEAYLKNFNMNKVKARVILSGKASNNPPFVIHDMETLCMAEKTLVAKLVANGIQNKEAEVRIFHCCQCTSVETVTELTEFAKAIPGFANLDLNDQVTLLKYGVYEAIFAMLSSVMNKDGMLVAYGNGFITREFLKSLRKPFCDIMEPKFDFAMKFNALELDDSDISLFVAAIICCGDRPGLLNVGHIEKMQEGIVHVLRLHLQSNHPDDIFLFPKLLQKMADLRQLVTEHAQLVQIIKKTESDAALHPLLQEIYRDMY
Protocol: as §1

IL-1α = assay: Cytokine production, LPS induced human PBMC; assay type: cell-based; conditions: stated in words only, no value
Protocol: The inhibition of Pemirolast on cytokine production was determined using the assay “LPS induced human PBMC”.

[2] = 5.0% aqueous solution once daily for four weeks, topical

| SMILES | Inflammatory acne lesions after treatment (acne vulgaris; [2]) | Scarring after treatment (acne vulgaris; [2]) | Reddened inflamed area surrounding the lesion (acne vulgaris) | Effect on inflammatory reaction in the arachidonic acid treated ear [1] | IC50 (PPAR-γ) [µM] | IC50 (PPAR-α) [µM] | Inhibition of IL-1α (IL-1α) |
| --- | --- | --- | --- | --- | --- | --- | --- |
| Cc1cccn2c(=O)c(-c3nnn[nH]3)cnc12 [Pemirolast (potassium salt)] | completely recessed | without any noticeable scarring | also recessed | – | – | – | – |
| Cc1cccn2c(=O)c(-c3nnn[nH]3)cnc12 [Pemirolast, 9-methyl-3-(1H-tetrazol-5-yl)-4H-pyrido[1,2-a]pyrimidin-4-one] | – | – | – | significantly prevented the inflammatory reaction | 20 | 17 | inhibits |
| O=C(OOC(=O)c1ccccc1)c1ccccc1 [benzoyl peroxide] | – | – | did not remove the reddened inflamed area | – | – | – | – |
